{"source": "paper PMC8909834", "about": "“An Orally Bioavailable and Highly Efficacious Inhibitor of CDK9/FLT3 for the Treatment of Acute Myeloid Leukemia” (Cancers, 2022)", "assay_in_all_cases": "Kinase Hotspot radiolabel assay", "assay_type_in_all_cases": "biochemical", "conditions_in_all_cases": "read-out: % Residual Activity", "key": {"P38d/MAPK13": {"molecular_target": "T1, P38d/MAPK13 (Homo sapiens, UniProt O15264)", "T1 construct": "purchased Reaction Biology Corporation (Kinase HotSpot)", "procedure,_shortened": "(§1)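 Inhibition measured by a radiolabel Hotspot kinase assay as part of a 369-kinase specificity panel, with the compound at 1 µM. Kinases inhibited by more than 90% went on to Ki determination.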"}, "RIPK2": {"molecular_target": "T2, RIPK2 (Homo sapiens, UniProt O43353)", "T2 construct": "purchased Reaction Biology Corporation (Kinase HotSpot)", "procedure,_shortened": "as §1"}, "p70S6Kb/RPS6KB2": {"molecular_target": "T3, p70S6Kb/RPS6KB2 (Homo sapiens, UniProt Q9UBS0)", "T3 construct": "purchased Reaction Biology Corporation (Kinase HotSpot)", "procedure,_shortened": "as §1"}, "LIMK1": {"molecular_target": "T4, LIMK1 (Homo sapiens, UniProt P53667)", "T4 construct": "purchased Reaction Biology Corporation (Kinase HotSpot)", "procedure,_shortened": "as §1"}, "MSSK1/STK23": {"molecular_target": "T5, MSSK1/STK23 (Homo sapiens, UniProt Q9UPE1)", "T5 construct": "purchased Reaction Biology Corporation (Kinase HotSpot)", "procedure,_shortened": "as §1"}, "ALK3/BMPR1A": {"molecular_target": "T6, ALK3/BMPR1A (Homo sapiens, UniProt P36894)", "T6 construct": "purchased Reaction Biology Corporation (Kinase HotSpot)", "T6 sequence (P36894 24-532)": "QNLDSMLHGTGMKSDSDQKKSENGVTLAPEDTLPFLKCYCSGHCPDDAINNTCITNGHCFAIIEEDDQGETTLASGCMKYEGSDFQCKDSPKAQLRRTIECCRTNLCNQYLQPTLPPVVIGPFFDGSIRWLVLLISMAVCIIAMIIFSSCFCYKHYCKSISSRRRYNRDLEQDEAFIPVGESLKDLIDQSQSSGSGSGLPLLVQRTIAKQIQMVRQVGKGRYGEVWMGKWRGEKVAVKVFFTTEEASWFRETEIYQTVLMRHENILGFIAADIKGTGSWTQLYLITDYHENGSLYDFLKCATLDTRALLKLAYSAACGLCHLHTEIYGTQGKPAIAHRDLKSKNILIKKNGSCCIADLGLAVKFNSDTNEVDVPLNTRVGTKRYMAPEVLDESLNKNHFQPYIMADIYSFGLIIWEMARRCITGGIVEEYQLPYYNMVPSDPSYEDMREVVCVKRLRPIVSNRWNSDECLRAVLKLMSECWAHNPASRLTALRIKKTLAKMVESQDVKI", "procedure,_shortened": "as §1"}, "CDK18/cyclin Y (PCTK3)": {"molecular_target": "T7, CDK18/cyclin Y (PCTK3) (Homo sapiens, UniProt Q07002)", "T7 construct": "purchased Reaction Biology Corporation (Kinase HotSpot)", "T7 sequence (Q07002 whole entry)": "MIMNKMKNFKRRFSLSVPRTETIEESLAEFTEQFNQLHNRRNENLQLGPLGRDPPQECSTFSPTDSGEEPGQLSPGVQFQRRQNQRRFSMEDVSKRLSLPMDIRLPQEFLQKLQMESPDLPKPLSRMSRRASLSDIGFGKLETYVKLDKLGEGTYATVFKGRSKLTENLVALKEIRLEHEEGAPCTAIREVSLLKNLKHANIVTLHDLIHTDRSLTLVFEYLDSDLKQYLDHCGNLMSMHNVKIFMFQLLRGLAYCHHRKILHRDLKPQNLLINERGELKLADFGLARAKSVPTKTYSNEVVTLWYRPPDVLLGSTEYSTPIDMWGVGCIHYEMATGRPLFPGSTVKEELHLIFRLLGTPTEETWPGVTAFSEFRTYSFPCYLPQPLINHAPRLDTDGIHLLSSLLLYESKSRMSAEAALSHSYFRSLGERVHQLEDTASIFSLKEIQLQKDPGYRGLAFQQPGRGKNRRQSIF", "T7 sequence (Q8ND76 whole entry partner)": "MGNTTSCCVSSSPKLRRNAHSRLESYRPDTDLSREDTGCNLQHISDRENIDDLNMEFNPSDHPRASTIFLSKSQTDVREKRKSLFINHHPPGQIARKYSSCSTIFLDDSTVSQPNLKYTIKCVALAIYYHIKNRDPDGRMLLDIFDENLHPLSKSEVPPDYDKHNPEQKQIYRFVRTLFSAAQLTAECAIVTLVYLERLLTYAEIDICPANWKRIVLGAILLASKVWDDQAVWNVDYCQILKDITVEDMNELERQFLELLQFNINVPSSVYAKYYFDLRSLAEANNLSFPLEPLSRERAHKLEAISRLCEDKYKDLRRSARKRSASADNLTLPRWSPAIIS", "procedure,_shortened": "as §1"}, "BTK": {"molecular_target": "T8, BTK (Homo sapiens, UniProt Q06187)", "T8 construct": "purchased Reaction Biology Corporation (Kinase HotSpot)", "T8 sequence (Q06187 whole entry)": "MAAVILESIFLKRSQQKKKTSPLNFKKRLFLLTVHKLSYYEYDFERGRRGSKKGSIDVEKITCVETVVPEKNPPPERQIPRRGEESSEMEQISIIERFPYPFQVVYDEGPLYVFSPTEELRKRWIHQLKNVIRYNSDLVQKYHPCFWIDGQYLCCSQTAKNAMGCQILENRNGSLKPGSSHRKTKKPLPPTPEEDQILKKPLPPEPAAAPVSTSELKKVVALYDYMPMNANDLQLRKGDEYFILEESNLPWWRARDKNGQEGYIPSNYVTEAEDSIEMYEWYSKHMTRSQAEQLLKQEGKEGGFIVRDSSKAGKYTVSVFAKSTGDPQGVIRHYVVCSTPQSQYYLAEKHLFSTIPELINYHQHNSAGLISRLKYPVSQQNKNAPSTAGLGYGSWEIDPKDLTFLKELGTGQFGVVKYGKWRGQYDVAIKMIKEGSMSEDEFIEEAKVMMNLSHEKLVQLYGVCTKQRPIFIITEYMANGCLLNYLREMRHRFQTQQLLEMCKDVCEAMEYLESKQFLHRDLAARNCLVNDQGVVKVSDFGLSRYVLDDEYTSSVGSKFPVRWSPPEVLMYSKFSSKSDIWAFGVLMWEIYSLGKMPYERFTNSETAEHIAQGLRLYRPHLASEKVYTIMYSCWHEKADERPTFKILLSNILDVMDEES", "procedure,_shortened": "as §1"}, "RSK1": {"molecular_target": "T9, RSK1 (Homo sapiens, UniProt Q15418)", "T9 construct": "purchased Reaction Biology Corporation (Kinase HotSpot)", "procedure,_shortened": "as §1"}, "DDR2": {"molecular_target": "T10, DDR2 (Homo sapiens, UniProt Q16832)", "T10 construct": "purchased Reaction Biology Corporation (Kinase HotSpot)", "procedure,_shortened": "as §1"}, "TTBK1": {"molecular_target": "T11, TTBK1 (Homo sapiens, UniProt Q5TCY1)", "T11 construct": "purchased Reaction Biology Corporation (Kinase HotSpot)", "procedure,_shortened": "as §1"}, "PAK2": {"molecular_target": "T12, PAK2 (Homo sapiens, UniProt Q13177)", "T12 construct": "purchased Reaction Biology Corporation (Kinase HotSpot)", "T12 sequence (Q13177 whole entry)": "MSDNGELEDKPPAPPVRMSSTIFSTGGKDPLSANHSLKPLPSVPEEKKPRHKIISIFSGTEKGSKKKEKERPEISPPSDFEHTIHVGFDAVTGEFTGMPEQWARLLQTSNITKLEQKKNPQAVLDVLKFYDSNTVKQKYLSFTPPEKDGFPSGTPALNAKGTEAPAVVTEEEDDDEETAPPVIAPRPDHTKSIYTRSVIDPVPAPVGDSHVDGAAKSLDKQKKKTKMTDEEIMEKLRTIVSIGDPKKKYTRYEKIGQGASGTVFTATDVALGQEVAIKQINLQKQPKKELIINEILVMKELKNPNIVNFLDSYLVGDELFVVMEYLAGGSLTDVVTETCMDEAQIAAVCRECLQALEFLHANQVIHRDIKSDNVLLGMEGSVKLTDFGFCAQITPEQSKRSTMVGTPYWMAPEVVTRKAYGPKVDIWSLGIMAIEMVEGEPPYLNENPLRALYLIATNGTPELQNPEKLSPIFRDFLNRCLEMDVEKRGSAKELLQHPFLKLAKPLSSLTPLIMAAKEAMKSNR", "procedure,_shortened": "as §1"}, "ERN1/IRE1": {"molecular_target": "T13, ERN1/IRE1 (Homo sapiens, UniProt O75460)", "T13 construct": "purchased Reaction Biology Corporation (Kinase HotSpot)", "T13 sequence (O75460 19-977)": "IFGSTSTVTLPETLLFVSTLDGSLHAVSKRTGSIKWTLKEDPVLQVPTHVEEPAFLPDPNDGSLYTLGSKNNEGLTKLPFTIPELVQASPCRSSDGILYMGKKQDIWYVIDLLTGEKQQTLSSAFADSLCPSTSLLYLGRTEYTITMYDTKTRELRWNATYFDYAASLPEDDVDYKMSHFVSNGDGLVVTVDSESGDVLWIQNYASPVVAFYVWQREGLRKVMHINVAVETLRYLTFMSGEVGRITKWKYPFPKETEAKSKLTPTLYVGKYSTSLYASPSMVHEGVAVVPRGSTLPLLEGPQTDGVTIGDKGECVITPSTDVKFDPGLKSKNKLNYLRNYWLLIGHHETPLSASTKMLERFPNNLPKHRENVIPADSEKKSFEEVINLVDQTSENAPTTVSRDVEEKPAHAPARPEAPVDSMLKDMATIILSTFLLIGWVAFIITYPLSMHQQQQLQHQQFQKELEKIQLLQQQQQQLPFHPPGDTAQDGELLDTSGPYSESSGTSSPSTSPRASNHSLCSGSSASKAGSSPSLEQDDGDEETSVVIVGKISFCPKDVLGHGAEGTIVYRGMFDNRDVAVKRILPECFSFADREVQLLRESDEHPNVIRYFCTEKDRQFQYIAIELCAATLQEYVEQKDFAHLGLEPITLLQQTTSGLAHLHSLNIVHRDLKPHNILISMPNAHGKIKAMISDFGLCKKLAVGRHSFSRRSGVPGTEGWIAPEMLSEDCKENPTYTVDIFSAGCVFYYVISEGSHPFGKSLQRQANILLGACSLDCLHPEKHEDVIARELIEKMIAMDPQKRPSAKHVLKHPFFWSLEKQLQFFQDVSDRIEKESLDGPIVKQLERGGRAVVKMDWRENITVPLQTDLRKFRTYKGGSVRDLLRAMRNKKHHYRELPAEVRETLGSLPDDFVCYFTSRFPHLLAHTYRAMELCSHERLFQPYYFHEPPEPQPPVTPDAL", "procedure,_shortened": "as §1"}, "MNK1": {"molecular_target": "T14, MNK1 (Homo sapiens, UniProt Q9BUB5)", "T14 construct": "purchased Reaction Biology Corporation (Kinase HotSpot)", "procedure,_shortened": "as §1"}, "TAOK2/TAO1": {"molecular_target": "T15, TAOK2/TAO1 (Homo sapiens, UniProt Q9UL54)", "T15 construct": "purchased Reaction Biology Corporation (Kinase HotSpot)", "procedure,_shortened": "as §1"}, "DMPK": {"molecular_target": "T16, DMPK (Homo sapiens, UniProt Q09013)", "T16 construct": "purchased Reaction Biology Corporation (Kinase HotSpot)", "procedure,_shortened": "as §1"}, "JNK3": {"molecular_target": "T17, JNK3 (Homo sapiens, UniProt P53779)", "T17 construct": "purchased Reaction Biology Corporation (Kinase HotSpot)", "procedure,_shortened": "as §1"}, "RSK2": {"molecular_target": "T18, RSK2 (Homo sapiens, UniProt P51812)", "T18 construct": "purchased Reaction Biology Corporation (Kinase HotSpot)", "procedure,_shortened": "as §1"}, "PBK/TOPK": {"molecular_target": "T19, PBK/TOPK (Homo sapiens, UniProt Q96KB5)", "T19 construct": "purchased Reaction Biology Corporation (Kinase HotSpot)", "procedure,_shortened": "as §1"}, "CLK2": {"molecular_target": "T20, CLK2 (Homo sapiens, UniProt P49760)", "T20 construct": "purchased Reaction Biology Corporation (Kinase HotSpot)", "T20 sequence (P49760 whole entry)": "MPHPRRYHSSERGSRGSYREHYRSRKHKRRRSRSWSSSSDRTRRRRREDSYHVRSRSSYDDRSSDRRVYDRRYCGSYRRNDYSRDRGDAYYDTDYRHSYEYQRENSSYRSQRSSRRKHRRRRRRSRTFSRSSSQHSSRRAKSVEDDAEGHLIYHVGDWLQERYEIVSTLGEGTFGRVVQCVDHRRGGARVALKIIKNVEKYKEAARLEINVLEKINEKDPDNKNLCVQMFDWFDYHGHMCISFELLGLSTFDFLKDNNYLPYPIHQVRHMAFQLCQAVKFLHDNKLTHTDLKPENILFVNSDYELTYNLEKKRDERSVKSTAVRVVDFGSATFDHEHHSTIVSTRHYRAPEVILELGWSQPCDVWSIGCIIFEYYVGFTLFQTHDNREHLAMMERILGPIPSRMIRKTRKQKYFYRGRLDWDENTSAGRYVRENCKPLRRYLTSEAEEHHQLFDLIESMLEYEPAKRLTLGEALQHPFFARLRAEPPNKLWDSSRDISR", "procedure,_shortened": "as §1"}, "VRK1": {"molecular_target": "T21, VRK1 (Homo sapiens, UniProt Q99986)", "T21 construct": "purchased Reaction Biology Corporation (Kinase HotSpot)", "T21 sequence (Q99986 whole entry)": "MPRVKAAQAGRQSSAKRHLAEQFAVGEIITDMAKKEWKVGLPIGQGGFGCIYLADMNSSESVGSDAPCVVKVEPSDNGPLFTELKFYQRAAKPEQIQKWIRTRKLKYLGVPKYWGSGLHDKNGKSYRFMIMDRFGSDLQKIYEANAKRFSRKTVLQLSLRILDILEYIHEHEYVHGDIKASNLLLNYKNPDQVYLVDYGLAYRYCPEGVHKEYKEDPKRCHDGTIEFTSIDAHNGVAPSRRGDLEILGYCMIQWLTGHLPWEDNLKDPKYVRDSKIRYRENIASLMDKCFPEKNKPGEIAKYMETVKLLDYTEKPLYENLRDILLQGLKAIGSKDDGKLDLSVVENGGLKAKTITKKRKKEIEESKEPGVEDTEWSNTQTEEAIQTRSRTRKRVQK", "procedure,_shortened": "as §1"}, "RIPK4": {"molecular_target": "T22, RIPK4 (Homo sapiens, UniProt P57078)", "T22 construct": "purchased Reaction Biology Corporation (Kinase HotSpot)", "procedure,_shortened": "as §1"}, "SIK1": {"molecular_target": "T23, SIK1 (Homo sapiens, UniProt P57059)", "T23 construct": "purchased Reaction Biology Corporation (Kinase HotSpot)", "procedure,_shortened": "as §1"}, "SRPK1": {"molecular_target": "T24, SRPK1 (Homo sapiens, UniProt Q96SB4)", "T24 construct": "purchased Reaction Biology Corporation (Kinase HotSpot)", "procedure,_shortened": "as §1"}, "ERBB2/HER2": {"molecular_target": "T25, ERBB2/HER2 (Homo sapiens, UniProt P04626)", "T25 construct": "purchased Reaction Biology Corporation (Kinase HotSpot)", "procedure,_shortened": "as §1"}, "MSK1/RPS6KA5": {"molecular_target": "T26, MSK1/RPS6KA5 (Homo sapiens, UniProt O75582)", "T26 construct": "purchased Reaction Biology Corporation (Kinase HotSpot)", "procedure,_shortened": "as §1"}, "IKKb/IKBKB": {"molecular_target": "T27, IKKb/IKBKB (Homo sapiens, UniProt O14920)", "T27 construct": "purchased Reaction Biology Corporation (Kinase HotSpot)", "procedure,_shortened": "as §1"}, "PIM1": {"molecular_target": "T28, PIM1 (Homo sapiens, UniProt P11309)", "T28 construct": "purchased Reaction Biology Corporation (Kinase HotSpot)", "procedure,_shortened": "as §1"}, "CDK2/cyclin E": {"molecular_target": "T29, CDK2/cyclin E (Homo sapiens, UniProt P24941)", "T29 construct": "purchased Reaction Biology Corporation (Kinase HotSpot)", "procedure,_shortened": "as §1"}, "CDK6/cyclin D3": {"molecular_target": "T30, CDK6/cyclin D3 (Homo sapiens, UniProt Q00534)", "T30 construct": "purchased Reaction Biology Corporation (Kinase HotSpot)", "T30 sequence (Q00534 whole entry)": "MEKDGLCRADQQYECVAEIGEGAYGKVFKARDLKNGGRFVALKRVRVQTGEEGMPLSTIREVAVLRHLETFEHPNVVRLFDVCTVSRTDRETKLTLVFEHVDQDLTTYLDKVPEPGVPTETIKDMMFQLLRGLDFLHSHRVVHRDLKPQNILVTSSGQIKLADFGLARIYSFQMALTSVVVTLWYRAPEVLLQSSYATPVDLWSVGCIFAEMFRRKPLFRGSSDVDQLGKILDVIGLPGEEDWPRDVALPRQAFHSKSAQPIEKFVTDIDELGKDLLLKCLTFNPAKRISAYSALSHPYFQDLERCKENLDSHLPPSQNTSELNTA", "T30 sequence (P30281 whole entry partner)": "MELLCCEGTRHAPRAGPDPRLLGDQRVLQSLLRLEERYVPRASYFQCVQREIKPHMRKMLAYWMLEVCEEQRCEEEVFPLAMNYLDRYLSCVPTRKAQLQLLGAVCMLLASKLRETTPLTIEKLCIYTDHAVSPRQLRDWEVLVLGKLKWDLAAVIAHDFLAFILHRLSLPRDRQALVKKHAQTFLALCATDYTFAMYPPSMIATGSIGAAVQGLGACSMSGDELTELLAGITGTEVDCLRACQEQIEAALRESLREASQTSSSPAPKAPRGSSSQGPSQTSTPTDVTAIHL", "procedure,_shortened": "as §1"}}}
{"molecule": "Cc1cnc(N[C@H]2CC[C@H](N)CC2)nc1-c1cnc2ccc(-c3ccccc3)cn12", "note": "[CDDD11-8]", "values": [{"measurement": "remaining activity at 1 µM", "setting": "P38d/MAPK13", "result": 99, "unit": "%"}, {"measurement": "remaining activity at 1 µM", "setting": "RIPK2", "result": 78.1, "unit": "%"}, {"measurement": "remaining activity at 1 µM", "setting": "p70S6Kb/RPS6KB2", "result": 98.6, "unit": "%"}, {"measurement": "remaining activity at 1 µM", "setting": "LIMK1", "result": 12.9, "unit": "%"}, {"measurement": "remaining activity at 1 µM", "setting": "MSSK1/STK23", "result": 90.8, "unit": "%"}, {"measurement": "remaining activity at 1 µM", "setting": "ALK3/BMPR1A", "result": 98, "unit": "%"}, {"measurement": "remaining activity at 1 µM", "setting": "CDK18/cyclin Y (PCTK3)", "result": 100, "unit": "%"}, {"measurement": "remaining activity at 1 µM", "setting": "BTK", "result": 87, "unit": "%"}, {"measurement": "remaining activity at 1 µM", "setting": "RSK1", "result": 56.9, "unit": "%"}, {"measurement": "remaining activity at 1 µM", "setting": "DDR2", "result": 73.5, "unit": "%"}, {"measurement": "remaining activity at 1 µM", "setting": "TTBK1", "result": 89.5, "unit": "%"}, {"measurement": "remaining activity at 1 µM", "setting": "PAK2", "result": 96.7, "unit": "%"}, {"measurement": "remaining activity at 1 µM", "setting": "ERN1/IRE1", "result": 41.8, "unit": "%"}, {"measurement": "remaining activity at 1 µM", "setting": "MNK1", "result": 76.4, "unit": "%"}, {"measurement": "remaining activity at 1 µM", "setting": "TAOK2/TAO1", "result": 45, "unit": "%"}, {"measurement": "remaining activity at 1 µM", "setting": "DMPK", "result": 96.2, "unit": "%"}, {"measurement": "remaining activity at 1 µM", "setting": "JNK3", "result": 81.3, "unit": "%"}, {"measurement": "remaining activity at 1 µM", "setting": "RSK2", "result": 71, "unit": "%"}, {"measurement": "remaining activity at 1 µM", "setting": "PBK/TOPK", "result": 102, "unit": "%"}, {"measurement": "remaining activity at 1 µM", "setting": "CLK2", "result": 47, "unit": "%"}, {"measurement": "remaining activity at 1 µM", "setting": "VRK1", "result": 42.4, "unit": "%"}, {"measurement": "remaining activity at 1 µM", "setting": "RIPK4", "result": 72.6, "unit": "%"}, {"measurement": "remaining activity at 1 µM", "setting": "SIK1", "result": 39.7, "unit": "%"}, {"measurement": "remaining activity at 1 µM", "setting": "SRPK1", "result": 94, "unit": "%"}, {"measurement": "remaining activity at 1 µM", "setting": "ERBB2/HER2", "result": 101, "unit": "%"}, {"measurement": "remaining activity at 1 µM", "setting": "MSK1/RPS6KA5", "result": 61.6, "unit": "%"}, {"measurement": "remaining activity at 1 µM", "setting": "IKKb/IKBKB", "result": 78.1, "unit": "%"}, {"measurement": "remaining activity at 1 µM", "setting": "PIM1", "result": 65, "unit": "%"}, {"measurement": "remaining activity at 1 µM", "setting": "CDK2/cyclin E", "result": 55.6, "unit": "%"}, {"measurement": "remaining activity at 1 µM", "setting": "CDK6/cyclin D3", "result": 96.6, "unit": "%"}]}
